Laboratory results: patent publication US20260258032A1, “TYROSINE KINASE 2 INHIBITORS AND USES THEREOF” (BIOGEN MA INC., priority 2022, published 2026)

Legend:
JH2 domain of human Tyk2 = molecular target: T1, JH2 domain of human Tyk2 (Homo sapiens, UniProt P29597); test: JH2 biochemical assay (TR-FRET probe displacement); assay type: binding; conditions: JH2 biochemical assay
T1 construct: 10×His-tagged TYK2 JH2 domain (amino acid 575-876)
In short: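 10×His-tagged human TYK2 JH2 (aa 575-876, 2 nM) incubated 60 min with 2 nM fluorescent probe, 0.1 nM Tb anti-His antibody and compound (10-point 3-fold series from […] top). TR-FRET 520/495 nm ratio, falling with probe displacement, normalized and fitted to a 4-parameter logistic for IC50.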

[1] = test system: Tyk2 kinase activity on STAT4; test: pSTAT4 cell assay (MSD, NK92 cells); assay type: cell-based; conditions: compounds 1 hr, stimulated 15 minutes
In short: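 NK92, serum-starved; cpd 1 hr, 10-pt 4-fold from 10 μM; IL2 30 ng/mL 15 min; lyse; MSD with anti-STAT4 Abs; IC50 by 4-PL fit.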

T1 sequence (P29597 575-876): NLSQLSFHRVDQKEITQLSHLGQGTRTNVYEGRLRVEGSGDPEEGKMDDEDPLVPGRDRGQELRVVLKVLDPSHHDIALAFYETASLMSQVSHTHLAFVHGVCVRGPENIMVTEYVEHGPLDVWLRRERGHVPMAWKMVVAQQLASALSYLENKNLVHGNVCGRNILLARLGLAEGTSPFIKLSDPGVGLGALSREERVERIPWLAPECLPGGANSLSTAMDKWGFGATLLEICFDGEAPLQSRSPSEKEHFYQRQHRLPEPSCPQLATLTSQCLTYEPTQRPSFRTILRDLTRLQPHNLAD

CCC(=O)Nc1cc2c(cn1)C1(CC1)CN2c1ccnc(C(C)(F)F)n1 [Example 89, N-(1′-(2-(1,1-difluoroethyl)pyrimidin-4-yl)-1′,2′-dihydrospiro[cyclopropane-1,3′-pyrrolo[3,2-c]pyridin]-6′-yl)propionamide]
IC50 (JH2 domain of human Tyk2): ≤ 10 nM
IC50 [1]: 100 to 1000 nM

COCCC(=O)Nc1cc2c(cn1)C1(CC1)CN2c1ccnc(C(C)(F)F)n1 [Example 91, N-(1′-(2-(1,1-difluoroethyl)pyrimidin-4-yl)-1′,2′-dihydrospiro[cyclopropane-1,3′-pyrrolo[3,2-c]pyridin]-6′-yl)-3-methoxypropanamide]
IC50 (JH2 domain of human Tyk2): 10 to 100 nM
IC50 [1]: ≥ 1000 nM

CC(=O)Nc1cc2c(cn1)C1(CC1)CN2c1cccc(S(C)(=O)=O)n1 [Example 93, N-(1′-(6-(methylsulfonyl)pyridin-2-yl)-1′,2′-dihydrospiro[cyclopropane-1,3′-pyrrolo[3,2-c]pyridin]-6′-yl)acetamide]
IC50 (JH2 domain of human Tyk2): ≤ 10 nM
IC50 [1]: ≤ 10 nM

CC(=O)Nc1cc2c(cn1)C1(CC1)CN2c1ccccn1 [Example 94, N-(1′-(pyridin-2-yl)-1′,2′-dihydrospiro[cyclopropane-1,3′-pyrrolo[3,2-c]pyridin]-6′-yl)acetamide]
IC50 (JH2 domain of human Tyk2): 100 to 1000 nM
IC50 [1]: ≥ 1000 nM

CC(=O)Nc1cc2c(cn1)C1(CC1)CN2c1cc(C)cc(C2(O)CCOC2)n1 (centres unmarked) [Example 95, N-(1′-(6-(3-hydroxytetrahydrofuran-3-yl)-4-methylpyridin-2-yl)-1′,2′-dihydrospiro[cyclopropane-1,3′-pyrrolo[3,2-c]pyridin]-6′-yl)acetamide]
IC50 (JH2 domain of human Tyk2): ≤ 10 nM
IC50 [1]: 100 to 1000 nM

CC(=O)Nc1cc2c(cn1)C1(CC1)CN2c1cc(C)nc(C(C)S(C)(=O)=O)n1 (centres unmarked) [Example 97, N-(1′-(6-methyl-2-(1-(methylsulfonyl)ethyl)pyrimidin-4-yl)-1′,2′-dihydrospiro[cyclopropane-1,3′-pyrrolo[3,2-c]pyridin]-6′-yl)acetamide]
IC50 (JH2 domain of human Tyk2): ≤ 10 nM
IC50 [1]: 100 to 1000 nM

CC(=O)Nc1cc2c(cn1)C1(CC1)CN2c1cc(C)nc(C2CCS(=O)(=O)C2)n1 (centres unmarked) [Example 98, N-(1′-(2-(1,1-dioxidotetrahydrothiophen-3-yl)-6-methylpyrimidin-4-yl)-1′,2′-dihydrospiro[cyclopropane-1,3′-pyrrolo[3,2-c]pyridin]-6′-yl)acetamide]
IC50 (JH2 domain of human Tyk2): 10 to 100 nM
IC50 [1]: ≥ 1000 nM

COCCOc1ccnc(N2CC3(CC3)c3cnc(NC(C)=O)cc32)n1 [Example 99, N-(1′-(4-(2-methoxyethoxy)pyrimidin-2-yl)-1′,2′-dihydrospiro[cyclopropane-1,3′-pyrrolo[3,2-c]pyridin]-6′-yl)acetamide]
IC50 (JH2 domain of human Tyk2): 10 to 100 nM
IC50 [1]: ≥ 1000 nM

CC(=O)Nc1cc2c(cn1)C1(CC1)CN2c1cc(C)nc(-n2cccn2)n1 [Example 100, N-(1′-(6-methyl-2-(1H-pyrazol-1-yl)pyrimidin-4-yl)-1′,2′-dihydrospiro[cyclopropane-1,3′-pyrrolo[3,2-c]pyridin]-6′-yl)acetamide]
IC50 (JH2 domain of human Tyk2): 10 to 100 nM
IC50 [1]: ≥ 1000 nM

CC(=O)Nc1cc2c(cn1)C1(CC1)CN2c1cncc(C(C)(F)F)n1 [Example 101, N-(1′-(6-(1,1-difluoroethyl)pyrazin-2-yl)-1′,2′-dihydrospiro[cyclopropane-1,3′-pyrrolo[3,2-c]pyridin]-6′-yl)acetamide]
IC50 (JH2 domain of human Tyk2): ≤ 10 nM
IC50 [1]: 100 to 1000 nM

CC(=O)Nc1cc2c(cn1)C1(CC1)CN2c1cc(C)nc(C2CCOC2)n1 (centres unmarked) [Example 103, N-(1′-(6-methyl-2-(tetrahydrofuran-3-yl)pyrimidin-4-yl)-1′,2′-dihydrospiro[cyclopropane-1,3′-pyrrolo[3,2-c]pyridin]-6′-yl)acetamide]
IC50 (JH2 domain of human Tyk2): ≤ 10 nM
IC50 [1]: 100 to 1000 nM

COC1(c2nc(C)cc(N3CC4(CC4)c4cnc(NC(C)=O)cc43)n2)CCC1 [Example 104, N-(1′-(2-(1-methoxycyclobutyl)-6-methylpyrimidin-4-yl)-1′,2′-dihydrospiro[cyclopropane-1,3′-pyrrolo[3,2-c]pyridin]-6′-yl)acetamide]
IC50 (JH2 domain of human Tyk2): ≤ 10 nM
IC50 [1]: 100 to 1000 nM

CC(=O)Nc1cc2c(cn1)C1(CC1)CN2c1cc(C)nc(N2CCCCC2)n1 [Example 113, N-(1′-(6-methyl-2-(piperidin-1-yl)pyrimidin-4-yl)-1′,2′-dihydrospiro[cyclopropane-1,3′-pyrrolo[3,2-c]pyridin]-6′-yl)acetamide]
IC50 (JH2 domain of human Tyk2): 10 to 100 nM
IC50 [1]: ≥ 1000 nM

CC(=O)Nc1cc2c(cn1)C1(CC1)CN2c1cc(C)nc(N2CCCC2)n1 [Example 114, N-(1′-(6-methyl-2-(pyrrolidin-1-yl)pyrimidin-4-yl)-1′,2′-dihydrospiro[cyclopropane-1,3′-pyrrolo[3,2-c]pyridin]-6′-yl)acetamide]
IC50 (JH2 domain of human Tyk2): 10 to 100 nM
IC50 [1]: 100 to 1000 nM

CC(=O)Nc1cc2c(cn1)C1(CC1)CN2c1cc(C)nc(N(C)C)n1 [Example 116, N-(1′-(2-(dimethylamino)-6-methylpyrimidin-4-yl)-1′,2′-dihydrospiro[cyclopropane-1,3′-pyrrolo[3,2-c]pyridin]-6′-yl)acetamide]
IC50 (JH2 domain of human Tyk2): 10 to 100 nM
IC50 [1]: ≥ 1000 nM

CC(=O)Nc1cc2c(cn1)C1(CC1)CN2c1cc(C)nc(C2CCCN(S(C)(=O)=O)C2)n1 (centres unmarked) [Example 119, N-(1′-(6-methyl-2-(1-(methylsulfonyl)piperidin-3-yl)pyrimidin-4-yl)-1′,2′-dihydrospiro[cyclopropane-1,3′-pyrrolo[3,2-c]pyridin]-6′-yl)acetamide]
IC50 (JH2 domain of human Tyk2): 10 to 100 nM
IC50 [1]: 100 to 1000 nM

CC(=O)Nc1cc2c(cn1)C1(CC1)CN2c1cc(C)nc(C2CCN(C(C)=O)CC2)n1 [Example 120, N-(1′-(2-(1-acetylpiperidin-4-yl)-6-methylpyrimidin-4-yl)-1′,2′-dihydrospiro[cyclopropane-1,3′-pyrrolo[3,2-c]pyridin]-6′-yl)acetamide]
IC50 (JH2 domain of human Tyk2): 100 to 1000 nM
IC50 [1]: ≥ 1000 nM

CC(=O)Nc1cc2c(cn1)C1(CC1)CN2c1cc(C)nc(C2CCN(S(C)(=O)=O)CC2)n1 [Example 122, N-(1′-(6-methyl-2-(1-(methylsulfonyl)piperidin-4-yl)pyrimidin-4-yl)-1′,2′-dihydrospiro[cyclopropane-1,3′-pyrrolo[3,2-c]pyridin]-6′-yl)acetamide]
IC50 (JH2 domain of human Tyk2): 100 to 1000 nM
IC50 [1]: ≥ 1000 nM

CC(=O)Nc1cc2c(cn1)C1(CC1)CN2c1cc(C)nc(C2CC2C)n1 (centres unmarked) [Example 123, N-(1′-(6-methyl-2-(2-methylcyclopropyl)pyrimidin-4-yl)-1′,2′-dihydrospiro[cyclopropane-1,3′-pyrrolo[3,2-c]pyridin]-6′-yl)acetamide]
IC50 (JH2 domain of human Tyk2): ≤ 10 nM
IC50 [1]: 100 to 1000 nM

CC(=O)Nc1cc2c(cn1)C1(CC1)CN2c1cc(C)nc(CO)n1 [Example 126, N-(1′-(2-(hydroxymethyl)-6-methylpyrimidin-4-yl)-1′,2′-dihydrospiro[cyclopropane-1,3′-pyrrolo[3,2-c]pyridin]-6′-yl)acetamide]
IC50 (JH2 domain of human Tyk2): 10 to 100 nM
IC50 [1]: ≥ 1000 nM

CC(=O)Nc1cc2c(cn1)C1(CC1)CN2c1nc(C(C)(F)F)nc(C)c1F [Example 127, N-(1′-(2-(1,1-difluoroethyl)-5-fluoro-6-methylpyrimidin-4-yl)-1′,2′-dihydrospiro[cyclopropane-1,3′-pyrrolo[3,2-c]pyridin]-6′-yl)acetamide]
IC50 (JH2 domain of human Tyk2): ≤ 10 nM
IC50 [1]: 100 to 1000 nM

CC(=O)Nc1cc2c(cn1)C1(CC1)CN2c1nc(C(C)(F)F)ncc1F [Example 128, N-(1′-(2-(1,1-difluoroethyl)-5-fluoropyrimidin-4-yl)-1′,2′-dihydrospiro[cyclopropane-1,3′-pyrrolo[3,2-c]pyridin]-6′-yl)acetamide]
IC50 (JH2 domain of human Tyk2): 10 to 100 nM
IC50 [1]: ≥ 1000 nM

COC(C)(C)c1nc(C)cc(N2CC3(CC3)c3cnc(NC(C)=O)cc32)n1 [Example 129, N-(1′-(2-(2-methoxypropan-2-yl)-6-methylpyrimidin-4-yl)-1′,2′-dihydrospiro[cyclopropane-1,3′-pyrrolo[3,2-c]pyridin]-6′-yl)acetamide]
IC50 (JH2 domain of human Tyk2): 10 to 100 nM
IC50 [1]: 100 to 1000 nM

COC(C)c1nc(C)cc(N2CC3(CC3)c3cnc(NC(C)=O)cc32)n1 (centres unmarked) [Example 130, N-(1′-(2-(1-methoxyethyl)-6-methylpyrimidin-4-yl)-1′,2′-dihydrospiro[cyclopropane-1,3′-pyrrolo[3,2-c]pyridin]-6′-yl)acetamide]
IC50 (JH2 domain of human Tyk2): ≤ 10 nM
IC50 [1]: 100 to 1000 nM

CC(=O)Nc1cc2c(cn1)C1(CC1)CN2c1cc(=O)[nH]c(C(C)(F)F)n1 [Example 133, N-(1′-(2-(1,1-difluoroethyl)-6-oxo-1,6-dihydropyrimidin-4-yl)-1′,2′-dihydrospiro[cyclopropane-1,3′-pyrrolo[3,2-c]pyridin]-6′-yl)acetamide]
IC50 (JH2 domain of human Tyk2): ≤ 10 nM
IC50 [1]: ≥ 1000 nM

CC(=O)Nc1cc2c(cn1)C1(CC1)CN2c1cc(C)nc(S(C)(=O)=O)n1 [Example 136, N-(1′-(6-methyl-2-(methylsulfonyl)pyrimidin-4-yl)-1′,2′-dihydrospiro[cyclopropane-1,3′-pyrrolo[3,2-c]pyridin]-6′-yl)acetamide]
IC50 (JH2 domain of human Tyk2): ≤ 10 nM
IC50 [1]: 10 to 100 nM

COC1CCN(c2nc(C)cc(N3CC4(CC4)c4cnc(NC(C)=O)cc43)n2)C1 (centres unmarked) [Example 137, N-(1′-(2-(3-methoxypyrrolidin-1-yl)-6-methylpyrimidin-4-yl)-1′,2′-dihydrospiro[cyclopropane-1,3′-pyrrolo[3,2-c]pyridin]-6′-yl)acetamide]
IC50 (JH2 domain of human Tyk2): ≤ 10 nM
IC50 [1]: 100 to 1000 nM

CC(=O)Nc1cc2c(cn1)C1(CC1)CN2c1cc(C)nc(OC2CCC2)n1 [Example 138, N-(1′-(2-cyclobutoxy-6-methylpyrimidin-4-yl)-1′,2′-dihydrospiro[cyclopropane-1,3′-pyrrolo[3,2-c]pyridin]-6′-yl)acetamide]
IC50 (JH2 domain of human Tyk2): 10 to 100 nM
IC50 [1]: ≥ 1000 nM
